Assay results published in patent US8703951B2, “Synthesis of 4H-benzo[D]pyrrolo[1,2-A]thiazoles and indolizino[6,7-b]indole derivatives and their use as antitumor therapeutic agents” (Academia Sinica, priority 2011, dated 2014).
Where two headings read alike, the source gives them in different places.

Experiments:
[1] = tested on: CCRF-CEM/Taxol; test: In vitro cytotoxicity, XTT assay, CCRF-CEM/Taxol; assay type: cell-based, human; conditions: Table 5; for IC50: Taxol-resistant subline, XTT, 72 h, read-out: Cell Growth inhibition (IC50 μM) CCRF-CEM/Taxol; for fold of cross-resistant vs IC50 of the parent cell line, CCRF-CEM/Taxol: number in brackets
Source text: (§1) Human colon carcinoma HCT-116 cells and human prostate adenocarcinoma PC-3 cells were obtained from American Type Culture Collection (ATCC, Rockville, Md.). Human mammary carcinoma (MX-1) tumor cells were obtained from MSKCC cell bank. The CCRF-CEM human lymphoblastic leukemia cells and their vinblastine resistant subline (CCRF-CEM/VBL, 680-fold resistance in vitro) were obtained from Dr. William Beck of the University of Illinois, Chicago, and CCRF-CEM/Taxol (330-fold resistance in vitro). Resistant cells CCRF-CEM/taxol were produced by exposing the parent cells to increasing sublethal concentration (IC50-IC90) of paclitaxel for six months.
(§2) In preparation for in vitro cytotoxicity assays, cells were cultured at an initial density 2−5×10^4 cells per milliliter. They were maintained in a 5% CO2-humidified atmosphere at 37° C. in RPMI medium 1640 (GIBCO/BRL) containing penicillin (100 units/mL), streptomycin (100 μg/mL, GIBCO/BRL), and 5% heat-inactivated FBS. For cells grown in suspension (such as CCRF-CEM and its sublines), cytotoxicity was measured, by using XTT microculture method^23 in 96-well microtiter plates.
(§3) The cytotoxic effects of the newly synthesized compounds were determined in T-cell acute lymphocytic leukemia (CCRF-CEM) and their resistant subcell lines (CCRF-CEM/Taxol and CCRF-CEM/VBL) by the XTT assay^24 and human solid tumor cells (i.e. breast carcinoma MX-1 and colon carcinoma HCT-116) by the SRB assay^25 in a 72 h incubation using a microplate spectrophotometer as described previously.^25 After the addition of phenazine methosulfate-XTT solution, incubated at 37° C. for 6 h and absorbance at 450 and 630 nm was detected on a microplate reader (EL 340). The cytotoxicity of the newly synthesized compounds against non-small cell lung carcinoma H1299, prostate cancer PC3, oral cancer OECM-1 and glioma U87 were determined by the Alamar blue assay^26 in a 72 h incubation using a microplate spectrophotometer as described previously. After the addition of alamar blue solution, it was incubated at 37° C. for 6 h. Absorbance at 570 and 600 nm was detected on a microplate reader. IC50 values were determined from dose-effect relationship at six or seven concentrations of each drug using the CompuSyn software by Chou and Martin^27 based on the median-effect principle and plot.^28,29 Ranges given for Cisplatin were mean±SE (n=4).

[2] = tested on: human lymphoblastic leukemia (CCRF-CEM); test: In vitro cytotoxicity, XTT assay, CCRF-CEM; assay type: cell-based
Source text: as §1, §2, §3

[3] = tested on: CCRF-CEM/VBL; test: In vitro cytotoxicity, XTT assay, CCRF-CEM/VBL; assay type: cell-based, human; conditions: Table 5; for fold of cross-resistant vs IC50 of the parent cell line, CCRF-CEM/VBL: number in brackets; for IC50: vinblastine-resistant subline, XTT, 72 h, read-out: Cell Growth inhibition (IC50 μM) CCRF-CEM/VBL
Source text: as §1, §2, §3

[4] = tested on: glioma U87; test: In vitro cytotoxicity, Alamar blue assay, U87; assay type: cell-based, human; conditions: Table 6, 72 h
Experimental: (§4) Prostate cancer PC3, non-small cell lung carcinoma cells H1299, and human glioma cells U87 were purchased from the American Type Culture Collection (Rockville, Md.). OECM-1 (human gingival squamous cell carcinoma cells) was obtained from Dr C.-L. Meng (National Defense Medical College, Taiwan).^22
as §2, §3

[5] = tested on: prostate cancer PC3; test: In vitro cytotoxicity, Alamar blue assay, PC3; assay type: cell-based, human; conditions: Table 6, 72 h
Experimental: as §4, §2, §3

[6] = tested on: colon carcinoma HCT-116; test: In vitro cytotoxicity, SRB assay, HCT-116; assay type: cell-based, human
Source text: as §1, §2, §3

[7] = tested on: breast carcinoma MX-1; test: In vitro cytotoxicity, SRB assay, MX-1; assay type: cell-based, human
Source text: as §1, §2, §3

[8] = tested on: non-small cell lung carcinoma H1299; test: In vitro cytotoxicity, Alamar blue assay, H1299; assay type: cell-based, human
Experimental: as §4, §2, §3

[9] = tested on: oral cancer OECM-1; test: In vitro cytotoxicity, Alamar blue assay, OECM-1; assay type: cell-based, human
Experimental: as §4, §2, §3

[10] = Table 5, 72 h incubation, read-out: Cell Growth inhibition (IC50 μM) CCRF-CEM
[11] = Homo sapiens, CCRF-CEM, Table 5, 72 h incubation, read-out: Cell Growth inhibition (IC50 μM) CCRF-CEM
[12] = Homo sapiens, NCI-H1299, Table 6, 72 h
[13] = Homo sapiens, OECM1, Table 6, 72 h
[14] = Homo sapiens, HCT-116, Table 6, 72 h
[15] = Table 7, 72 h, read-out: IC50 (μM) CCRF/CEM

## CCNC(=O)OCc1c(COC(=O)NCC)c2sc3ccccc3n2c1C [Compound 19a, (1-Methylbenzo[d]pyrrolo[2,1-b]thiazole-2,3-diyl)bis(methylene)bis(ethylcarbamate)]
[1]
  IC50: 0.45 ± 0.013 µM
  fold of cross-resistant vs IC50 of the parent cell line, CCRF-CEM/Taxol: 1.30 ×
[2]; [10]
  IC50: 0.33 ± 0.01 µM
[3]
  fold of cross-resistant vs IC50 of the parent cell line, CCRF-CEM/VBL: 1.30 ×
  IC50: 0.43 ± 0.003 µM

## CCNC(=O)OCc1c(COC(=O)NCC)c2sc3ccccc3n2c1-c1ccc(F)c(F)c1 [Compound 19d, (1-(3,4-Difluorophenyl)benzo[d]pyrrolo[2,1-b]thiazole-2,3-diyl)bis(methylene)bis(ethylcarbamate)]
[4]
  IC50: 38.5 ± 7.21 µM
[5]
  IC50: 19.3 ± 3.44 µM
[6]; Table 6, 72 h
  IC50: 1.1 ± 0.015 µM
[1]
  IC50: 0.34 ± 0.008 µM
  fold of cross-resistant vs IC50 of the parent cell line, CCRF-CEM/Taxol: 1.61 ×
[2]; [10]
  IC50: 0.21 ± 0.01 µM
[7]; Table 6, 72 h
  IC50: 1.49 ± 0.04 µM
[8]; Table 6, 72 h
  IC50: 10.3 ± 1.11 µM
[3]
  fold of cross-resistant vs IC50 of the parent cell line, CCRF-CEM/VBL: 1.47 ×
  IC50: 0.31 ± 0.002 µM
[9]; Table 6, 72 h
  IC50: 14.6 ± 3.39 µM

## OCc1c(CO)c2sc3ccccc3n2c1-c1ccc(F)c(F)c1 [Compound 18d, (1-(3,4-Difluorophenyl)benzo[d]pyrrolo[2,1-b]thiazole-2,3-diyl)dimethanol]
[4]; Homo sapiens
  IC50: 17.4 ± 1.86 µM
[5]; Homo sapiens
  IC50: 15.2 ± 1.86 µM
[1]; Homo sapiens, CCRF-CEM
  IC50: 0.19 ± 0.004 µM
[1]
  fold of cross-resistant vs IC50 of the parent cell line, CCRF-CEM/Taxol: 100 ×
[2]; [11]
  IC50: 0.19 ± 0.02 µM
[8]; [12]
  IC50: 21.4 ± 3.74 µM
[3]; Homo sapiens, CCRF-CEM
  IC50: 0.28 ± 0.006 µM
[3]
  fold of cross-resistant vs IC50 of the parent cell line, CCRF-CEM/VBL: 1.47 ×
[9]; [13]
  IC50: 8.48 ± 0.67 µM

## CCNC(=O)OCc1c(COC(=O)NCC)c2sc3ccccc3n2c1-c1ccc(F)cc1 [Compound 19b, (1-(4-Fluorophenyl)benzo[d]pyrrolo[2,1-b]thiazole-2,3-diyl)bis(methylene)bis(ethylcarbamate)]
[4]
  IC50: 29.2 ± 2.63 µM
[5]
  IC50: 23.7 ± 3.05 µM
[6]; Table 6, 72 h
  IC50: 0.52 ± 0.025 µM
[1]
  IC50: 0.38 ± 0.002 µM
  fold of cross-resistant vs IC50 of the parent cell line, CCRF-CEM/Taxol: 5.42 ×
[2]; [10]
  IC50: 0.07 ± 0.0002 µM
[7]; Table 6, 72 h
  IC50: 0.48 ± 0.005 µM
[8]; Table 6, 72 h
  IC50: 13.6 ± 2.03 µM
[3]
  fold of cross-resistant vs IC50 of the parent cell line, CCRF-CEM/VBL: 6.42 ×
  IC50: 0.45 ± 0.033 µM
[9]; Table 6, 72 h
  IC50: 11.5 ± 2.63 µM

## OCc1c(CO)c2sc3ccccc3n2c1-c1ccc(F)cc1 [Compound 18b, (1-(4-Fluorophenyl)benzo[d]pyrrolo[2,1-b]thiazole-2,3-diyl)dimethanol]
[4]; Homo sapiens
  IC50: 15.5 ± 1.31 µM
[5]; Homo sapiens
  IC50: 13.8 ± 2.15 µM
[6]; [14]
  IC50: 9.59 ± 0.19 µM
[1]; Homo sapiens, CCRF-CEM
  IC50: 2.56 ± 0.012 µM
[1]
  fold of cross-resistant vs IC50 of the parent cell line, CCRF-CEM/Taxol: 2.41 ×
[2]; [11]
  IC50: 1.06 ± 0.04 µM
[7]; Homo sapiens, Table 6, 72 h
  IC50: 2.77 ± 0.005 µM
[8]; [12]
  IC50: 9.27 ± 1.69 µM
[3]; Homo sapiens, CCRF-CEM
  IC50: 3.72 ± 0.175 µM
[3]
  fold of cross-resistant vs IC50 of the parent cell line, CCRF-CEM/VBL: 3.50 ×
[9]; [13]
  IC50: 6.03 ± 1.2 µM

## CC(C)NC(=O)OCc1c(COC(=O)NC(C)C)c(-c2ccc(Cl)cc2)n2c1Cc1c(n(C)c3ccccc13)C2 [Compound 28d, [3-(4-Chlorophenyl)-6-methyl-6,11-dihydro-5H-indolizino[6,7-b]indole-1,2-diyl]bis(methylene) (isopropylcarbamate)]
[6]; Table 7, 72 h
  IC50: 3.06 ± 0.067 µM
[2]; [15]
  IC50: 0.437 ± 0.003 µM
[7]; Table 7, 72 h
  IC50: 12.39 ± 0.05 µM

## CCNC(=O)OCc1c(COC(=O)NCC)c(-c2ccc(Cl)cc2)n2c1Cc1c(n(C)c3ccccc13)C2 [Compound 27d, [3-(4-Chlorophenyl)-6-methyl-6,11-dihydro-5H-indolizino[6,7-b]indole-1,2-diyl]bis(methylene)bis(ethylcarbamate)]
[6]; Table 7, 72 h
  IC50: 1.17 ± 0.009 µM
[2]; [15]
  IC50: 0.35 ± 0.013 µM
[7]; Table 7, 72 h
  IC50: 1.83 ± 0.082 µM

## Cc1c(CO)c(CO)c2sc3ccccc3n12 [Compound 18a, (1-Methylbenzo[d]pyrrolo[2,1-b]thiazole-2,3-diyl)dimethanol]
[6]; [14]
  IC50: 4.44 ± 0.08 µM
[1]; Homo sapiens, CCRF-CEM
  IC50: 1.88 ± 0.007 µM
[1]
  fold of cross-resistant vs IC50 of the parent cell line, CCRF-CEM/Taxol: 1.93 ×
[2]; [11]
  IC50: 0.97 ± 0.03 µM
[7]; Homo sapiens, Table 6, 72 h
  IC50: 7.1 ± 0.037 µM
[3]; Homo sapiens, CCRF-CEM
  IC50: 1.86 ± 0.01 µM
[3]
  fold of cross-resistant vs IC50 of the parent cell line, CCRF-CEM/VBL: 1.91 ×

## CC(C)NC(=O)OCc1c(COC(=O)NC(C)C)c2sc3ccccc3n2c1-c1ccc(F)c(F)c1 [Compound 20d, (1-(3,4-Difluorophenyl)benzo[d]pyrrolo[2,1-b]thiazole-2,3-diyl)bis(methylene)bis(iso-propylcarbamate)]
[4]
  IC50: 74.9 ± 15.7 µM
[5]
  IC50: 29.6 ± 1.83 µM
[6]; Table 6, 72 h
  IC50: 0.41 ± 0.005 µM
[1]
  IC50: 0.19 ± 0.004 µM
  fold of cross-resistant vs IC50 of the parent cell line, CCRF-CEM/Taxol: 0.57 ×
[2]; [10]
  IC50: 0.33 ± 0.001 µM
[7]; Table 6, 72 h
  IC50: 1 ± 0.002 µM
[8]; Table 6, 72 h
  IC50: 30.8 ± 6.92 µM
[3]
  fold of cross-resistant vs IC50 of the parent cell line, CCRF-CEM/VBL: 0.90 ×
  IC50: 0.3 ± 0.001 µM
[9]; Table 6, 72 h
  IC50: 15.1 ± 1.34 µM
